Measured values as given in the supplement of paper PMC10307832.

Tests used:
Test in all cases: relative viability (nuclei count vs DMSO), 5 days (fraction); higher = more cells survive
[1] = compound: CC(C)CCN1c2nc(Nc3cc(F)c(O)c(F)c3)ncc2N(C)C(=O)C1C [BI-D1870] + CC(C)C[C@H](NC(=O)[C@H](Cc1ccccc1)NC(=O)c1cnccn1)B(O)O [Bortezomib] (partner 0.002 µM)
In short: (§1)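 Lung cancer cell lines were pin-tool dosed in 1536-well plates on the day after seeding, with either a lone drug or a fixed anchor-drug dose plus five library-drug doses (not always all listed) in √10 steps. Nuclei were counted on 4× images after 5 days. Relative viability is the ratio of treated-well to vehicle-well nuclei counts, with each value a median of duplicate plates.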

[2] = compound: CC(C)CCN1c2nc(Nc3cc(F)c(O)c(F)c3)ncc2N(C)C(=O)C1C [BI-D1870] + Nc1ncn([C@H]2C[C@H](O)[C@@H](CO)O2)c(=O)n1 [Decitabine] (partner 2 µM)
In short: as §1

[3] = compound: O=c1ncccn1[C@@H]1O[C@H](CO)[C@@H](O)[C@H]1O [Zebularine] + CCNC(=O)c1noc(-c2cc(C(C)C)c(O)cc2O)c1-c1ccc(CN2CCOCC2)cc1 [Luminespib] (partner 0.01 µM)
In short: as §1

[4] = compound: O=c1ncccn1[C@@H]1O[C@H](CO)[C@@H](O)[C@H]1O [Zebularine] + Cc1nc(Nc2ncc(C(=O)Nc3c(C)cccc3Cl)s2)cc(N2CCN(CCO)CC2)n1 [Dasatinib] (partner 0.075 µM)
In short: as §1

Cell Line: HCC-44
- relative viability ([1]; first compound 0.04 µM): 1.08
- relative viability ([1]; first compound 0.1265 µM): 0.965
- relative viability ([1]; first compound 0.4 µM): 0.909
- relative viability ([1]; first compound 1.265 µM): 0.941
- relative viability ([1]; first compound 4 µM): 0.99
- relative viability ([2]; first compound 0.04 µM): 0.987
- relative viability ([2]; first compound 0.1265 µM): 0.973
- relative viability ([2]; first compound 0.4 µM): 0.96
- relative viability ([2]; first compound 1.265 µM): 1.03
- relative viability ([2]; first compound 4 µM): 1.04
- relative viability ([3]; first compound 1 µM): 1.17
- relative viability ([3]; first compound 3.162 µM): 1.15
- relative viability ([3]; first compound 10 µM): 0.746
- relative viability ([3]; first compound 31.62 µM): 0.374
- relative viability ([3]; first compound 100 µM): 0.388

Cell Line: HCC-78
- relative viability ([4]; first compound 1 µM): 0.385
- relative viability ([4]; first compound 3.162 µM): 0.428
- relative viability ([4]; first compound 10 µM): 0.22
- relative viability ([4]; first compound 31.62 µM): 0.37
- relative viability ([4]; first compound 100 µM): 0.278
- relative viability ([1]; first compound 0.04 µM): 0.545
- relative viability ([1]; first compound 0.1265 µM): 0.402
- relative viability ([1]; first compound 0.4 µM): 0.492
- relative viability ([1]; first compound 1.265 µM): 0.56
- relative viability ([1]; first compound 4 µM): 0.42
- relative viability ([2]; first compound 0.04 µM): 0.755
- relative viability ([2]; first compound 0.1265 µM): 0.774
- relative viability ([2]; first compound 0.4 µM): 0.791
- relative viability ([2]; first compound 1.265 µM): 0.727
- relative viability ([2]; first compound 4 µM): 0.746

Cell Line: HCC-366
- relative viability ([4]; first compound 1 µM): 0.617
- relative viability ([4]; first compound 3.162 µM): 0.667
- relative viability ([4]; first compound 10 µM): 0.526
- relative viability ([4]; first compound 31.62 µM): 0.721
- relative viability ([4]; first compound 100 µM): 0.218
- relative viability ([1]; first compound 0.04 µM): 1.1
- relative viability ([1]; first compound 0.1265 µM): 0.911
- relative viability ([1]; first compound 0.4 µM): 1.05
- relative viability ([1]; first compound 1.265 µM): 1.1
- relative viability ([1]; first compound 4 µM): 0.317
- relative viability ([2]; first compound 0.04 µM): 0.337
- relative viability ([2]; first compound 0.1265 µM): 0.306
- relative viability ([2]; first compound 0.4 µM): 0.322
- relative viability ([2]; first compound 1.265 µM): 0.469
- relative viability ([2]; first compound 4 µM): 0.414

Cell Line: IA-LM
- relative viability ([1]; first compound 0.04 µM): 1.05
- relative viability ([1]; first compound 0.1265 µM): 0.842
- relative viability ([1]; first compound 0.4 µM): 0.756
- relative viability ([1]; first compound 1.265 µM): 0.764
- relative viability ([1]; first compound 4 µM): 0.204

Cell Line: LK-2
- relative viability ([4]; first compound 1 µM): 0.242
- relative viability ([4]; first compound 3.162 µM): 0.336
- relative viability ([4]; first compound 10 µM): 0.287
- relative viability ([4]; first compound 31.62 µM): 0.256
- relative viability ([4]; first compound 100 µM): 0.228
- relative viability ([2]; first compound 0.04 µM): 0.373
- relative viability ([2]; first compound 0.1265 µM): 0.317
- relative viability ([2]; first compound 0.4 µM): 0.379
- relative viability ([2]; first compound 1.265 µM): 0.353
- relative viability ([2]; first compound 4 µM): 0.342
- relative viability ([3]; first compound 1 µM): 0.17
- relative viability ([3]; first compound 3.162 µM): 0.176
- relative viability ([3]; first compound 10 µM): 0.213
- relative viability ([3]; first compound 31.62 µM): 0.182
- relative viability ([3]; first compound 100 µM): 0.176

Cell Line: NCI-H358
- relative viability ([4]; first compound 1 µM): 0.169
- relative viability ([4]; first compound 3.162 µM): 0.134
- relative viability ([4]; first compound 10 µM): 0.194
- relative viability ([4]; first compound 31.62 µM): 0.174
- relative viability ([4]; first compound 100 µM): 0.105
- relative viability ([2]; first compound 0.04 µM): 0.201
- relative viability ([2]; first compound 0.1265 µM): 0.195
- relative viability ([2]; first compound 0.4 µM): 0.202
- relative viability ([2]; first compound 1.265 µM): 0.21
- relative viability ([2]; first compound 4 µM): 0.229
- relative viability ([3]; first compound 1 µM): 0.355
- relative viability ([3]; first compound 3.162 µM): 0.462
- relative viability ([3]; first compound 10 µM): 0.251
- relative viability ([3]; first compound 31.62 µM): 0.269
- relative viability ([3]; first compound 100 µM): 0.184

Cell Line: NCI-H522
- relative viability ([4]; first compound 1 µM): 0.859
- relative viability ([4]; first compound 3.162 µM): 0.886
- relative viability ([4]; first compound 10 µM): 0.473
- relative viability ([4]; first compound 31.62 µM): 0.933
- relative viability ([4]; first compound 100 µM): 0.938
- relative viability ([2]; first compound 0.04 µM): 0.595
- relative viability ([2]; first compound 0.1265 µM): 0.762
- relative viability ([2]; first compound 0.4 µM): 0.677
- relative viability ([2]; first compound 1.265 µM): 0.647
- relative viability ([2]; first compound 4 µM): 0.661
- relative viability ([3]; first compound 1 µM): 0.928
- relative viability ([3]; first compound 3.162 µM): 0.881
- relative viability ([3]; first compound 10 µM): 0.99
- relative viability ([3]; first compound 31.62 µM): 0.776
- relative viability ([3]; first compound 100 µM): 0.665

Cell Line: NCI-H1299
- relative viability ([1]; first compound 0.04 µM): 1
- relative viability ([1]; first compound 0.1265 µM): 0.985
- relative viability ([1]; first compound 0.4 µM): 1.02
- relative viability ([1]; first compound 1.265 µM): 0.959
- relative viability ([1]; first compound 4 µM): 0.839

Cell Line: NCI-H1395
- relative viability ([4]; first compound 1 µM): 0.443
- relative viability ([4]; first compound 3.162 µM): 0.37
- relative viability ([4]; first compound 10 µM): 0.408
- relative viability ([4]; first compound 31.62 µM): 0.341
- relative viability ([4]; first compound 100 µM): 0.36
- relative viability ([2]; first compound 0.04 µM): 0.68
- relative viability ([2]; first compound 0.1265 µM): 0.671
- relative viability ([2]; first compound 0.4 µM): 0.707
- relative viability ([2]; first compound 1.265 µM): 0.738
- relative viability ([2]; first compound 4 µM): 0.718
- relative viability ([3]; first compound 1 µM): 0.564
- relative viability ([3]; first compound 3.162 µM): 0.666
- relative viability ([3]; first compound 10 µM): 0.456
- relative viability ([3]; first compound 31.62 µM): 0.536
- relative viability ([3]; first compound 100 µM): 0.372

Cell Line: NCI-H1563
- relative viability ([4]; first compound 1 µM): 0.498
- relative viability ([4]; first compound 3.162 µM): 0.528
- relative viability ([4]; first compound 10 µM): 0.527
- relative viability ([4]; first compound 31.62 µM): 0.406
- relative viability ([4]; first compound 100 µM): 0.466
- relative viability ([1]; first compound 0.04 µM): 0.908
- relative viability ([1]; first compound 0.1265 µM): 0.81
- relative viability ([1]; first compound 0.4 µM): 0.802
- relative viability ([1]; first compound 1.265 µM): 0.852
- relative viability ([1]; first compound 4 µM): 0.784
- relative viability ([3]; first compound 1 µM): 0.519
- relative viability ([3]; first compound 3.162 µM): 0.517
- relative viability ([3]; first compound 10 µM): 0.518
- relative viability ([3]; first compound 31.62 µM): 0.521
- relative viability ([3]; first compound 100 µM): 0.514
